# Experimental data published in patent US7803815B2, “Indol-3-yl-corbonyl-piperidin-benzoimidazol derivatives” (Hoffmann-La Roche Inc., priority 2005, dated 2010).
# Molecular target: T1, human V1a receptor (Homo sapiens, UniProt P37288)
# T1 construct: expressed in transfected cells; host or cells: HEK293 cells, transiently transfected; membrane preparation
# Assay: human V1a receptor binding, 3H-Vasopressin SPA on membranes of transfected HEK293 cells
# Conditions: displacement of 4 nM 3H-Vasopressin; HEK293 cell membranes; 1 h at room temperature; Ki from IC50 by the Cheng-Prussoff equation
# Method: The human V1a receptor was cloned by RT-PCR from total human liver RNA. The coding sequence was subcloned in an expression vector after sequencing to confirm the identity of the amplified sequence. […] Cell membranes were prepared from HEK293 cells transiently transfected with the expression vector and grown in 20 liter fermenters with the following protocol.
# 50 g of cells are resuspended in 30 ml freshly prepared ice cold Lysis buffer (50 mM HEPES, 1 mM EDTA, 10 mM MgCl2 adjusted to pH=7.4+ complete cocktail of protease inhibitor (Roche Diagnostics)). Homogenized with Polytron for 1 min and sonicated on ice for 2×2 minutes at 80% intensity (Vibracell sonicator). The preparation is centrifuged 20 min at 500 g at 4° C., the pellet is discarded, and the supernatant centrifuged 1 hour at 43,000 g at 4° C. (19,000 rpm). The pellet is resuspended in 12.5 ml Lysis buffer+12.5 ml Sucrose 20% and homogenized using a Polytron for 1-2 min. The protein concentration is determined by the Bradford method, and aliquots are stored at −80° C. until use. For binding studies 60 mg Yttrium silicate SPA beads (Amersham) are mixed with an aliquot of membrane in binding buffer (50 mM Tris, 120 mM NaCl, 5 mM, KCl, 2 mM CaCl2, 10 mM MgCl2) for 15 minutes with mixing. 50 ul of bead/membrane mixture is then added to each well of a 96 well plate, followed by 50 ul of 4 nM 3H-Vasopressin (American Radiolabeled Chemicals). For total binding measurement, 100 ul of binding buffer are added to the respective wells, for non-specific binding 100 ul of […] cold vasopressin and for compound testing 100 ul of a serial dilution of each compound in 2% DMSO. The plate is incubated 1 h at room temperature, centrifuged 1 min at 1000 g and counted on a Packard Top-Count. Non-specific binding counts are subtracted from each well, and data is normalized to the maximum specific binding set at 100%. To calculate an IC 50, the curve is fitted using a non-linear regression model (XLfit), and the Ki is calculated using the Cheng-Prussoff equation.
# T1 sequence (P37288 whole entry): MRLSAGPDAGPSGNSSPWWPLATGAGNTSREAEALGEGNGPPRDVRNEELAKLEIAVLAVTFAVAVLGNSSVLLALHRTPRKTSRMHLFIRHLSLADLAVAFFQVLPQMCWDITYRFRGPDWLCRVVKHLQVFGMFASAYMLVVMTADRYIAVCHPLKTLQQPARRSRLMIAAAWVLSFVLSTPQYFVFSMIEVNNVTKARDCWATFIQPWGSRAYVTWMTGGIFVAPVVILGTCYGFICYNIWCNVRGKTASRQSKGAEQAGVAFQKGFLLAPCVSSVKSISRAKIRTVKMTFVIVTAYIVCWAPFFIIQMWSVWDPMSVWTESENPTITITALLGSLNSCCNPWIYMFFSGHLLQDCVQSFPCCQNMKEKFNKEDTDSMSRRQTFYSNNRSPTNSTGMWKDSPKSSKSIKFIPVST
row,Ki [nM],Compound
1,2,"O=C(Cn1cc(C(=O)N2CCC(n3c(=O)[nH]c4ccccc43)CC2)c2ccc(Cl)cc21)c1ccccc1F [Example 38, 1-(1-{6-Chloro-1-[2-(2-fluoro-phenyl)-2-oxo-ethyl]-1H-indole-3-carbonyl}-piperidin-4-yl)-1,3-dihydro-benzoimidazol-2-one]"
2,18,"O=C(Cn1cc(C(=O)N2CCC(n3c(=O)[nH]c4ccccc43)CC2)c2ccc(Cl)cc21)c1ccc(F)c(F)c1 [Example 39, 1-(1-{6-Chloro-1-[2-(3,4-difluoro-phenyl)-2-oxo-ethyl]-1H-indole-3-carbonyl}-piperidin-4-yl)-1,3-dihydro-benzoimidazol-2-one]"
3,13,"O=C(c1cn(-c2cc(F)cc(F)c2)c2cc(Cl)ccc12)N1CCC(n2c(=O)[nH]c3ccccc32)CC1 [Example 40, 1-{1-[6-Chloro-1-(3,5-difluoro-phenyl)-1H-indole-3-carbonyl]-piperidin-4-yl}-1,3-dihydro-benzoimidazol-2-one]"
4,14,"O=C(c1cn(C(=O)N2CCCCC2)c2cc(Cl)ccc12)N1CCC(n2c(=O)[nH]c3ccccc32)CC1 [Example 41, 1-{1-[6-Chloro-1-(piperidine-1-carbonyl)-1H-indole-3-carbonyl]-piperidin-4-yl}-1,3-dihydro-benzoimidazol-2-one]"
5,62,"CCN(CC)C(=O)Cn1cc(C(=O)N2CCC(n3c(=O)n(CC(=O)N(CC)CC)c4ccccc43)CC2)c2ccc(Cl)cc21 [Example 43, 2-{6-Chloro-3-[4-(3-diethylcarbamoylmethyl-2-oxo-2,3-dihydro-benzoimidazol-1-yl)-piperidine-1-carbonyl]-indol-1-yl}-N,N-diethyl-acetamide]"
6,2,"CN(C)C(=O)Cn1cc(C(=O)N2CCC(n3c(=O)[nH]c4ccccc43)CC2)c2ccc(Cl)cc21 [Example 46, 2-{6-Chloro-3-[4-(2-oxo-2,3-dihydro-benzoimidazol-1-yl)-piperidine-1-carbonyl]-indol-1-yl}-N,N-dimethyl-acetamide]"
7,5,"Cc1cc2c(C(=O)N3CCC(n4c(=O)[nH]c5ccccc54)CC3)cn(CC(=O)N(C)C)c2cc1Cl [Example 47, 2-{6-Chloro-5-methyl-3-[4-(2-oxo-2,3-dihydro-benzoimidazol-1-yl)-piperidine-1-carbonyl]-indol-1-yl}-N,N-dimethyl-acetamide]"
8,3,"CN(C)C(=O)Cn1cc(C(=O)N2CCC(n3c(=O)[nH]c4ccccc43)CC2)c2cc(Cl)c(Cl)cc21 [Example 48, 2-{5,6-Dichloro-3-[4-(2-oxo-2,3-dihydro-benzoimidazol-1-yl)-piperidine-1-carbonyl]-indol-1-yl}-N,N-dimethyl-acetamide]"

row,Compound,Ki [nM]
1,"O=C(Cn1cc(C(=O)N2CCC(n3c(=O)n(CC(=O)N4CCCCC4)c4ccccc43)CC2)c2ccc(Cl)cc21)N1CCCCC1 [Example 42, 1-{1-[6-Chloro-1-(2-oxo-2-piperidin-1-yl-ethyl)-1H-indole-3-carbonyl]-piperidin-4-yl}-3-(2-oxo-2-piperidin-1-yl-ethyl)-1,3-dihydro-benzoimidazol-2-one]",18
2,"O=C(Cn1cc(C(=O)N2CCC(n3c(=O)[nH]c4ccccc43)CC2)c2ccc(Cl)cc21)c1cc(F)cc(F)c1 [Example 44, 1-(1-{6-Chloro-1-[2-(3,5-difluoro-phenyl)-2-oxo-ethyl]-1H-indole-3-carbonyl}-piperidin-4-yl)-1,3-dihydro-benzoimidazol-2-one]",17
3,"Cc1oc(-c2ccccc2)nc1C(=O)Cn1cc(C(=O)N2CCC(n3c(=O)[nH]c4ccccc43)CC2)c2ccc(Cl)cc21 [Example 45, 1-(1-{6-Chloro-1-[2-(5-methyl-2-phenyl-oxazol-4-yl)-2-oxo-ethyl]-1H-indole-3-carbonyl}-piperidin-4-yl)-1,3-dihydro-benzoimidazol-2-one]",43
